Measurements reported in US9771341B2, “Piperazine carbamates and methods of making and using same” (Abide Therapeutics, Inc., priority 2015, dated 2017).
Read-outs that look alike come from different tables or passages of the source.

Assays:
Format in all cases: biochemical
MAGL = biological target: T1, MAGL (Mus musculus, UniProt O35678); assay: In vitro competitive activity-based protein profiling (mouse), MAGL; conditions: for inhibition at 1 µM: read-out: % Inhibition at 1 μM MAGL; for IC50: mouse brain membrane fraction or cell lysates, 30 min preincubation at 37° C, FP-Rh probe
T1 construct: Proteomes (mouse brain membrane fraction or cell lysates); from tissue; host or cells: mouse brain membrane fraction (or unspecified cell lysates)
T1 sequence (O35678 1-303): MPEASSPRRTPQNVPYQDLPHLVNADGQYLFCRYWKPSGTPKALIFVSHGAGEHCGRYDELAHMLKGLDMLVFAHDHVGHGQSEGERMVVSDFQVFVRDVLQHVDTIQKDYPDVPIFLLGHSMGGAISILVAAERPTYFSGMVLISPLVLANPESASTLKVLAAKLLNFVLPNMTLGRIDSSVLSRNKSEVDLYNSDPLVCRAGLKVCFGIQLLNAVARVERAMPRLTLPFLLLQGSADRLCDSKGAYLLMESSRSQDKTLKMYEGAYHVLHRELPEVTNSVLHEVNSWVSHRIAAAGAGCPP
Protocol: (§1) In Vitro Competitive Activity-Based Protein Profiling (Mouse).
(§2) Proteomes (mouse brain membrane fraction or cell lysates) (50 μL, 1.0 mg/mL total protein concentration) were preincubated with varying concentrations of inhibitors at 37° C. After 30 min, FP-Rh (1.0 μL, 50 μM in DMSO) was added and the mixture was incubated for another 30 min at 37° C. Reactions were quenched with SDS loading buffer (50 μL-4×) and run on SDS-PAGE.

FAAH = biological target: T2, FAAH (Mus musculus, UniProt O08914); assay: In vitro competitive activity-based protein profiling (mouse), FAAH; conditions: for inhibition at 1 µM: mouse proteome, in vitro; for IC50: mouse brain membrane fraction or cell lysates, 30 min preincubation at 37° C, FP-Rh probe
T2 construct: Proteomes (mouse brain membrane fraction or cell lysates); from tissue; host or cells: mouse brain membrane fraction (or unspecified cell lysates)
T2 sequence (O08914 1-579): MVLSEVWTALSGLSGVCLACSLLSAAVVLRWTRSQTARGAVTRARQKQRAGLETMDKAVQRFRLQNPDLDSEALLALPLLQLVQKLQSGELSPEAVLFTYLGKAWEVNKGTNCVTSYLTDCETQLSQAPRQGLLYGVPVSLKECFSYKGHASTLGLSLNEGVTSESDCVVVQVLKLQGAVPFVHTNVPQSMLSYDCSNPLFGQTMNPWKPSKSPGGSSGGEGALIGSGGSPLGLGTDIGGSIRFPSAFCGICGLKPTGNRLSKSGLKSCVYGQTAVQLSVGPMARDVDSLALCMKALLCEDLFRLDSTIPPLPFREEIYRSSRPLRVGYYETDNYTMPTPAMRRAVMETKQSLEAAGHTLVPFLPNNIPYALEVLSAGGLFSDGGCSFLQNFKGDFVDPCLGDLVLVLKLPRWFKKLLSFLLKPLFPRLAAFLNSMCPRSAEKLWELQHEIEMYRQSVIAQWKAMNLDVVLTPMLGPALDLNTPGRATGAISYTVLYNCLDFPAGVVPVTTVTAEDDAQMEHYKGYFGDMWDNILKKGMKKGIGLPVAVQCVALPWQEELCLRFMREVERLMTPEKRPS
Protocol: as §1
as §2, with “SDS-PAGE. Following gel imaging, serine hydrolase activity was determined by measuring fluorescent intensity of gel bands corresponding to MAGL, ABHD6 and FAAH using ImageJ 1.43u software.” for “SDS-PAGE.”

ABHD6 = biological target: T3, ABHD6 (Mus musculus, UniProt Q8R2Y0); assay: In vitro competitive activity-based protein profiling (mouse), ABHD6; conditions: for inhibition at 1 µM: read-out: % Inhibition at 1 μM ABHD6; for IC50: mouse brain membrane fraction or cell lysates, 30 min preincubation at 37° C, FP-Rh probe
T3 construct: Proteomes (mouse brain membrane fraction or cell lysates); from tissue; host or cells: mouse brain membrane fraction (or unspecified cell lysates)
T3 sequence (Q8R2Y0 1-336): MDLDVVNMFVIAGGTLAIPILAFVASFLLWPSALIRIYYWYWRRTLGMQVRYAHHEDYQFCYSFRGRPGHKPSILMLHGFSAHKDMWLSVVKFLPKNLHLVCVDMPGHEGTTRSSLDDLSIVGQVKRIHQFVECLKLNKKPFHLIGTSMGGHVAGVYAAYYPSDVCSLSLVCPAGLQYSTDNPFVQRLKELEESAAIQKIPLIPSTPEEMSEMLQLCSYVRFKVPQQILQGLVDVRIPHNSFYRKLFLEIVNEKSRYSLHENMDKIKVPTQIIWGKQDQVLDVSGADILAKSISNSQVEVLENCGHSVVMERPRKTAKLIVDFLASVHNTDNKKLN
Protocol: as §1, §2

SMILES | inhibition at 1 µM (MAGL; 1 μM, mouse proteome, in vitro) [%] | IC50 (MAGL) [nM] | inhibition at 1 µM (FAAH) [%] | IC50 (FAAH) [nM] | inhibition at 1 µM (ABHD6; 1 μM, mouse proteome, in vitro) [%] | IC50 (ABHD6) [nM] | inhibition at 1 µM (MAGL) [%] | inhibition at 1 µM (ABHD6) [%]
O=C(O)C1CCN(c2cc(CN3CCN(C(=O)OC(C(F)(F)F)C(F)(F)F)CC3)ccc2C(F)(F)F)CC1 [Example 85, 1-(5-((4-(((1,1,1,3,3,3-hexafluoropropan-2-yl)oxy)carbonyl)piperazin-1-yl)methyl)-2-(trifluoromethyl)phenyl)piperidine-4-carboxylic acid] | 25 to 75 | 100 to 1000 | < 25 | > 1000 | > 75 | 100 to 1000 |  | 
COc1c(CN2CCC(F)CC2)cccc1CN1CCN(C(=O)OC(C(F)(F)F)C(F)(F)F)CC1 [Example 9, 1,1,1,3,3,3-hexafluoropropan-2-yl 4-(3-((4-fluoropiperidin-1-yl)methyl)-2-methoxybenzyl)piperazine-1-carboxylate] | > 75 | < 100 | < 25 | > 1000 | > 75 | 100 to 1000 |  | 
O=C(O)C1CN(c2cc(CN3CCN(C(=O)OC(C(F)(F)F)C(F)(F)F)CC3)ccc2C(F)(F)F)CCO1 (stereo not drawn) [Example 83, 4-(5-((4-(((1,1,1,3,3,3-hexafluoropropan-2-yl)oxy)carbonyl)piperazin-1-yl)methyl)-2-(trifluoromethyl)phenyl)morpholine-2-carboxylic acid] | > 75 | < 100 | < 25 | > 1000 | < 25 | 100 to 1000 |  | 
CN(C)C(=O)C1CCN(c2cc(Cl)ccc2CN2CCN(C(=O)OC(C(F)(F)F)C(F)(F)F)CC2)CC1 [Example 34, 1,1,1,3,3,3-hexafluoropropan-2-yl 4-(4-chloro-2-(4-(dimethylcarbamoyl)piperidin-1-yl)benzyl)piperazine-1-carboxylate] | > 75 | 100 to 1000 | < 25 | > 1000 | < 25 | > 1000 |  | 
O=C(O)C1CCN(c2cc(CN3CCN(C(=O)OC(C(F)(F)F)C(F)(F)F)CC3)cc(C(F)(F)F)c2)C1 (stereo not drawn) [Example 89, 1-(3-((4-(((1,1,1,3,3,3-hexafluoropropan-2-yl)oxy)carbonyl)piperazin-1-yl)methyl)-5-(trifluoromethyl)phenyl)pyrrolidine-3-carboxylic acid] | > 75 | 100 to 1000 | < 25 | > 1000 | > 75 | < 100 |  | 
COc1c(CN2CCN(C(C)=O)CC2)cccc1CN1CCN(C(=O)OC(C(F)(F)F)C(F)(F)F)CC1 [Example 7, 1,1,1,3,3,3-hexafluoropropan-2-yl 4-(3-((4-acetylpiperazin-1-yl)methyl)-2-methoxybenzyl)piperazine-1-carboxylate] | > 75 | 100 to 1000 | < 25 | > 1000 | > 75 | 100 to 1000 |  | 
O=C(O)C1CCN(c2cc(Cl)ccc2CN2CCN(C(=O)OC(C(F)(F)F)C(F)(F)F)CC2)CC1 [Example 62, 1-(5-chloro-2-((4-(((1,1,1,3,3,3-hexafluoropropan-2-yl)oxy)carbonyl)piperazin-1-yl)methyl)phenyl)piperidine-4-carboxylic acid] | > 75 | 100 to 1000 | < 25 | > 1000 | < 25 | > 1000 |  | 
O=C(OC(C(F)(F)F)C(F)(F)F)N1CCN(Cc2ccc(Cl)cc2N2CCC3(CCCN3C3CC3)CC2)CC1 [Example 66, 1,1,1,3,3,3-hexafluoropropan-2-yl 4-(4-chloro-2-(1-cyclopropyl-1,8-diazaspiro[4.5]decan-8-yl)benzyl)piperazine-1-carboxylate] | > 75 | 100 to 1000 | < 25 | > 1000 | 25 to 75 | > 1000 |  | 
O=C(O)C(=O)c1cc(CN2CCN(C(=O)OC(C(F)(F)F)C(F)(F)F)CC2)ccc1C(F)(F)F [Example 84, 2-(5-((4-(((1,1,1,3,3,3-hexafluoropropan-2-yl)oxy)carbonyl)piperazin-1-yl)methyl)-2-(trifluoromethyl)phenyl)-2-oxoacetic acid] | > 75 | < 100 | < 25 | > 1000 | > 75 | < 100 |  | 
CC(=O)N1CCN(Cc2cccc(CN3CCN(C(=O)OC(C(F)(F)F)C(F)(F)F)CC3)c2C)CC1 [Example 14, 1,1,1,3,3,3-hexafluoropropan-2-yl 4-(3-((4-acetylpiperazin-1-yl)methyl)-2-methylbenzyl)piperazine-1-carboxylate] | > 75 | < 100 | < 25 | > 1000 | > 75 | < 100 |  | 
O=C(OC(C(F)(F)F)C(F)(F)F)N1CCN(Cc2c(N3C4CCC3COC4)cccc2C(F)(F)F)CC1 [Example 49, 1,1,1,3,3,3-hexafluoropropan-2-yl 4-(2-(3-oxa-8-azabicyclo[3.2.1]octan-8-yl)-6-(trifluoromethyl)benzyl)piperazine-1-carboxylate] |  |  | < 25 |  |  |  | 25 to 75 | < 25
O=C(O)C1CN(c2cc(CN3CCN(C(=O)OC(C(F)(F)F)C(F)(F)F)CC3)cc(C(F)(F)F)c2)CCO1 (stereo not drawn) [Example 92, 4-(3-((4-(((1,1,1,3,3,3-hexafluoropropan-2-yl)oxy)carbonyl)piperazin-1-yl)methyl)-5-(trifluoromethyl)phenyl)morpholine-2-carboxylic acid] | > 75 | < 100 | < 25 | > 1000 | < 25 | > 1000 |  | 
Cc1cc(C)n(C2CN(c3cc(Cl)ccc3CN3CCN(C(=O)OC(C(F)(F)F)C(F)(F)F)CC3)C2)n1 [Example 38, 1,1,1,3,3,3-hexafluoropropan-2-yl 4-(4-chloro-2-(3-(3,5-dimethyl-1H-pyrazol-1-yl)azetidin-1-yl)benzyl)piperazine-1-carboxylate] | > 75 | < 100 | < 25 | > 1000 | < 25 | 100 to 1000 |  | 
Cc1c(CN2CCN(C(=O)OC(C(F)(F)F)C(F)(F)F)CC2)cccc1CN1CCN(S(C)(=O)=O)CC1 [Example 8, 1,1,1,3,3,3-hexafluoropropan-2-yl 4-(2-methyl-3-((4-(methylsulfonyl)piperazin-1-yl)methyl)benzyl)piperazine-1-carboxylate] | > 75 | < 100 | < 25 | > 1000 | > 75 | < 100 |  | 
O=C(O)C1CCN(c2cc(C(F)(F)F)ccc2CN2CCN(C(=O)OC(C(F)(F)F)C(F)(F)F)CC2)CC1 [Example 63, 1-(2-((4-(((1,1,1,3,3,3-hexafluoropropan-2-yl)oxy)carbonyl)piperazin-1-yl)methyl)-5-(trifluoromethyl)phenyl)piperidine-4-carboxylic acid] | > 75 | < 100 | < 25 | > 1000 | > 75 | 100 to 1000 |  | 
